Laboratory results taken from patent publication US20230117034A1, “PYRAZOLOTRIAZINES” (Bayer Aktiengesellschaft, priority 2019, published 2023).

Experiments:
CDK12/CycK = CDK12/CycK (Homo sapiens, UniProt Q9NYV4); assay: CDK12/CycK high ATP kinase assay (TR-FRET, 2 mM ATP); type: biochemical; conditions: 2 mM ATP (high ATP); median; read-out: CDK12/CyclinK, 2 mM ATP (high ATP), IC50-[mol/l] (median)
Summary of the method: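 His-tagged human CDK12/CycK (~0.75 nM) pre-incubated 15 min with compound, then 60 min at 22 °C with 2 mM ATP and 1 µM biotinylated peptide (HEPES pH 7.5, 20 mM MgCl2). EDTA stop; phospho-Ser62 antibody/Eu anti-rabbit and streptavidin-XL665 TR-FRET, 665/620 nm ratio normalised to give IC50.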

CDK2/CycE = target: T1, CDK2/CycE (Homo sapiens, UniProt P24941); assay: CDK2/CycE kinase assay (TR-FRET, 2 mM ATP); type: biochemical; conditions: 2 mM ATP (high ATP); median; read-out: CDK2/CyclinE, 2 mM ATP (high ATP), IC50 (median)
T1 construct: purchased ProQinase GmbH (Freiburg, Germany); host or cells: insect cells (Sf9)
Summary of the method: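 GST-tagged human CDK2 and CycE from Sf9 cells, about 10 ng/ml, pre-incubated 15 min at 22 °C with compound in Tris/HCl pH 8.0 buffer. Reaction with 2 mM ATP and 0.75 µM biotinylated peptide for 25 min at 22 °C. Phospho-RB antibody TR-FRET (665/620 nm ratio) read after 1 h; data normalised to no-inhibitor and no-enzyme controls.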

CDK12/CycK, sequence (Q9NYV4 with tags, fused parts or gaps): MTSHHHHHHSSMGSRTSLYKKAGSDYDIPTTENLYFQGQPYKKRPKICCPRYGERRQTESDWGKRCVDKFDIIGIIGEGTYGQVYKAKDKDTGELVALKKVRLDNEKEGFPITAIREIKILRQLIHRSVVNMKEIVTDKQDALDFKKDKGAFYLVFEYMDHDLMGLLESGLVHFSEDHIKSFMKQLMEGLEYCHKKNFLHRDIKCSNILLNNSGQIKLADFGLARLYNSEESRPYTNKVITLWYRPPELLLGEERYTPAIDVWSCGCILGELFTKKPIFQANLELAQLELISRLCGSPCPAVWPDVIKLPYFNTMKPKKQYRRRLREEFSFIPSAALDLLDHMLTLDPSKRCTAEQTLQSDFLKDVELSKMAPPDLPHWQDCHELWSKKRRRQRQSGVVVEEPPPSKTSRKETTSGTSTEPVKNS
CDK12/CycK, sequence (O75909 1-300 partner limits assumed): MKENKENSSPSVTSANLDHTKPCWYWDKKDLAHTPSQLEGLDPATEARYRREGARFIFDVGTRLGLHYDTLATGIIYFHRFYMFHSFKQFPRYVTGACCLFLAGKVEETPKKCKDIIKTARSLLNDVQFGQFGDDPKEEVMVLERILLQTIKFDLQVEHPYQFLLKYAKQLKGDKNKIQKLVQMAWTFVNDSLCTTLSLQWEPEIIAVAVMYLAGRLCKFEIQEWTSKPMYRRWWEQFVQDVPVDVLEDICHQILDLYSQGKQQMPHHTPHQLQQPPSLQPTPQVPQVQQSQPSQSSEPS

IC50 (CDK12/CycK) [µM] | IC50 (CDK2/CycE) [µM] | SMILES
7.47 | 2.2 | CN1CCN(c2nc(NCc3nnc(-c4ccccc4)[nH]3)n3ncc(Br)c3n2)CC1=O [Example 121, 4-(8-bromo-4-{[(5-phenyl-4H-1,2,4-triazol-3-yl)methyl]amino}pyrazolo[1,5-a][1,3,5]triazin-2-yl)-1-methylpiperazin-2-one]
12.6 | > 20 | CC1(C)CN(c2nc(NCc3nc4ccccc4[nH]3)n3ncc(C4CC4)c3n2)CCO1 [Example 123, N-[(1H-benzimidazol-2-yl)methyl]-8-cyclopropyl-2-(2,2-dimethylmorpholin-4-yl)pyrazolo[1,5-a][1,3,5]triazin-4-amine]
> 20 | > 20 | Clc1cccc(-c2cnn3c(NCc4nc5ccccc5[nH]4)nc(N4CCOCC4)nc23)c1 [Example 107, N-[(1H-benzimidazol-2-yl)methyl]-8-(3-chlorophenyl)-2-(morpholin-4-yl)pyrazolo[1,5-a][1,3,5]triazin-4-amine]
3.72 | 7.81 | [O-][S+]1CCN(c2nc(NCc3nc4ccccc4[nH]3)n3ncc(Br)c3n2)CC1 [Example 144, 4-(4-{[(1H-benzimidazol-2-yl)methyl]amino}-8-bromopyrazolo[1,5-a][1,3,5]triazin-2-yl)-1lambda^4-thiomorpholin-1-one]
